Experimental data from patent publication US20020183519A1, “Antithrombotic carboxylic acid amides” (priority 2001, published 2002).

Target: T1, human factor Xa (Homo sapiens, UniProt P00742)
T1 construct: released from the colourless chromogenic substrate by human factor Xa; purchased Roche
Experiment: Inhibition of factor Xa, enzyme-kinetic measurement with chromogenic substrate
Format: biochemical
Conditions: human factor Xa (Roche) 0.175 U/ml, substrate Chromozym X 200 μMol/l, pH 8.0, 37° C., 405 nm
Description: Method: Enzyme-kinetic measurement with chromogenic substrate. The quantity of p-nitroaniline (pNA) released from the colourless chromogenic substrate by human factor Xa is determined photometrically at 405 nm. It is proportional to the activity of the enzyme used. The inhibition of the enzyme activity by the test substance (in relation to the solvent control) is determined at various concentrations of test substance and from this the IC50 is calculated, as the concentration which inhibits the factor Xa used by 50%.
Material: Tris(hydroxymethyl)-aminomethane buffer (100 mmol) and sodium chloride (150 mmol), pH 8.0
Factor Xa (Roche), spec. activity: 10 U/0.5 ml, final concentration: 0.175 U/ml for each reaction mixture
Substrate Chromozym X (Roche), final concentration: 200 μMol/l for each reaction mixture
Procedure: 10 μl of a 23.5-times concentrated starting solution of the test substance or solvent (control), 175 μl of tris(hydroxymethyl)-aminomethane buffer and 25 μl of a 1.65 U/ml Factor Xa working solution are incubated for 10 minutes at 37° C. After the addition of 25 μl of Chromozym X working solution ([…]) the sample is measured in a photometer (SpectraMax 250) at 405 nm for 150 seconds at 37° C.
1. Determining the maximum increase (deltaOD/minutes) over 3 measuring points.
2. Determining the % inhibition based on the solvent control.
3. Plotting a dosage/activity curve (% inhibition vs substance concentration).
4. Determining the IC50 by interpolating the X value (substance concentration) of the dosage/activity curve at Y=50% inhibition.

T1 sequence (P00742 235-488 limits assumed): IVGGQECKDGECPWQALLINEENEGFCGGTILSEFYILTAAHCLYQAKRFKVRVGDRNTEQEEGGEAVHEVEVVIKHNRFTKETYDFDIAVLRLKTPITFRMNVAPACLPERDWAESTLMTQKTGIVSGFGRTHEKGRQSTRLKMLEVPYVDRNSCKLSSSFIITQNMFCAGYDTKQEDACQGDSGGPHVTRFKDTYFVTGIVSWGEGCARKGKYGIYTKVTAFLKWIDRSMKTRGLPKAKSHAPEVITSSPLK
T1 sequence (P00742 41-179 partner limits assumed): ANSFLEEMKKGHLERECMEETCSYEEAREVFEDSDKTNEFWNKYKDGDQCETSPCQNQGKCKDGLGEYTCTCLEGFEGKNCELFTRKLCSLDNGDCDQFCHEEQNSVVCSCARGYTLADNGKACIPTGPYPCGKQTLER

| SMILES | IC50 |
| --- | --- |
| Cc1cc(NC(=O)Cc2cc(C(=N)N)ccc2O)ccc1-n1c(N2CCCC2)nc2ccccc21 [(1)] | 0.14 µM |
| Cc1cc(NC(=O)Cc2cc(C(=N)N)ccc2O)ccc1-n1cnc2c1CCCC2 [(2)] | 0.081 µM |
| Cc1cc(NC(=O)Cc2cc(C(=N)N)ccc2O)ccc1-c1ncnc2c1CCC2 [(3)] | 0.062 µM |
| Cc1nn(-c2ccc(C(=O)NCc3cc(C(=N)N)ccc3O)cc2C(F)(F)F)c2c1CCC2 [(4)] | 0.015 µM |
| CNC(=O)c1nn(-c2ccc(C(=O)NCc3cc(C(=N)N)ccc3O)cc2C(F)(F)F)c2c1CCC2 [(5)] | 0.016 µM |
| N=C(N)c1ccc(O)c(CNC(=O)c2ccc(-n3nc(CN)c4c3CCC4)c(C(F)(F)F)c2)c1 [(6)] | 0.007 µM |
| CCOC(=O)CC(NC(=O)c1ccc(-n2nc(CN)c3c2CCC3)c(C(F)(F)F)c1)c1cccc(C(=N)N)c1 (stereo not drawn) [(7)] | 0.0075 µM |
| CCOC(=O)CC(NC(=O)c1ccc(-n2cnc3c2CCCC3)c(C(F)(F)F)c1)c1cccc(C(=N)N)c1 (stereo not drawn) [(8)] | 0.028 µM |
| COC(=O)c1nn(-c2ccc(C(=O)NCc3cc(C(=N)N)ccc3O)cc2C(F)(F)F)c2c1CCC2 [(9)] | 0.024 µM |
